Laboratory results as given in ChEMBL document CHEMBL1201862, “PubChem BioAssay data set” (2004).
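Five concentrations, 48 hours, 96-well plates. GI50 marks 50% less growth.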 Activity calls are given as the source filed them. Rule as the data show it: active = GI50 up to about 1.1 µM and inactive = higher.

How the values were obtained:
Assay in all cases: NCI tumour cell line growth inhibition, 48 h
DU-145 = test system: DU-145
MDA-MB-231 = test system: MDA-MB-231
Hs-578T = test system: Hs-578T
XF498 = test system: XF498
DMS-114 = test system: DMS-114
DMS-273 = test system: DMS-273
SNB-78 = test system: SNB-78
LXFL 529 = test system: LXFL 529
RXF 631 = test system: RXF 631

O=c1c2c3c(sc2nc(CN2CCNCC2)n1-c1ccccc1)CCCC3
GI50 (DU-145): > 100 µM (inactive) | GI50 (MDA-MB-231): > 100 µM (inactive) | GI50 (Hs-578T): > 100 µM (inactive)

Cc1c2ccncc2cc2c1[nH]c1ccccc12
GI50 (XF498): 1.12 µM (active) | GI50 (DMS-114): 5.27 µM (inactive) | GI50 (DMS-273): 1.19 µM (inactive) | GI50 (SNB-78): 13 µM (inactive)

N#CC1(CCCI)CCCC1
GI50 (XF498): 18.6 µM (inactive) | GI50 (DMS-114): 3.72 µM (inactive) | GI50 (LXFL 529): 23.2 µM (inactive) | GI50 (DMS-273): 4.55 µM (inactive) | GI50 (RXF 631): 1.34 µM (inactive) | GI50 (SNB-78): 20.1 µM (inactive)

COC1OC(=O)[C@H]2O[N+]([O-])=C(C)[C@@H]12 (stereo partly drawn)
GI50 (XF498): > 100 µM (inactive) | GI50 (DMS-114): > 100 µM (inactive) | GI50 (SNB-78): > 100 µM (inactive)

Cc1cc(N(CCC#N)S(=O)(=O)c2ccccc2)ccc1/C=N\c1cccc(C(=O)O)c1
GI50 (DMS-114): 61 µM (inactive) | GI50 (LXFL 529): > 100 µM (inactive) | GI50 (RXF 631): > 100 µM (inactive) | GI50 (SNB-78): > 100 µM (inactive)

CCOC(=O)CSc1c(C(=O)OCC)c(=O)n(-c2ccccc2)c(=S)n1-c1ccccc1
GI50 (DU-145): 82 µM (inactive) | GI50 (Hs-578T): 33 µM (inactive)

CCCCc1c2c(nc3c1CCc1cc4cc5c(nc4nc1-3)-c1nc3c(c(CCCC)c1CC5)CCC/C3=C\c1ccccc1)/C(=C/c1ccccc1)CCC2
GI50 (DMS-114): > 100 µM (inactive) | GI50 (LXFL 529): > 100 µM (inactive) | GI50 (DMS-273): > 100 µM (inactive) | GI50 (SNB-78): > 100 µM (inactive)

CN(C)c1n/c(=N/c2ccc(/N=c3\nc(N(C)C)ss3)cc2)ss1
GI50 (DMS-114): 16.7 µM (inactive) | GI50 (LXFL 529): > 33.5 µM (inactive) | GI50 (DMS-273): 28.8 µM (inactive) | GI50 (RXF 631): 22 µM (inactive) | GI50 (SNB-78): 17.6 µM (inactive)

COc1ccc(NCC(=O)Nn2c(-c3ccccc3)nc3ccccc3c2=O)cc1
GI50 (DU-145): > 100 µM (inactive) | GI50 (MDA-MB-231): 19 µM (inactive) | GI50 (Hs-578T): 28.1 µM (inactive)

CCOc1cc(/C=N\O)cc(/C=N/O)c1O
GI50 (DU-145): 68.5 µM (inactive) | GI50 (MDA-MB-231): 69.8 µM (inactive) | GI50 (Hs-578T): 31.3 µM (inactive)

CCN(CC)CCCC(C)Nc1cc(-c2ccccc2)nc2cc(OC)ccc12 (stereo not drawn)
GI50 (DMS-114): 6.68 µM (inactive) | GI50 (LXFL 529): 6.28 µM (inactive) | GI50 (SNB-78): 3.21 µM (inactive)

CCOC(=O)Nc1ccc(S(=O)(=O)NCCCl)cc1.CCOC(=O)Nc1ccc(S(=O)(=O)NCCCl)cc1.O=C(O)c1ccc(/N=N/Cl)cc1O
GI50 (DMS-114): > 100 µM (inactive) | GI50 (LXFL 529): > 100 µM (inactive) | GI50 (DMS-273): > 100 µM (inactive) | GI50 (RXF 631): > 100 µM (inactive) | GI50 (SNB-78): > 100 µM (inactive)

COc1ccc(CCCC(=O)O)c(C)c1
GI50 (DU-145): 21.1 µM (inactive) | GI50 (MDA-MB-231): 36.1 µM (inactive) | GI50 (Hs-578T): 43.5 µM (inactive)

CC1(C)COC2C(N(Cc3ccccc3)Cc3ccccc3)C(=O)N21 (stereo not drawn)
GI50 (LXFL 529): 51.3 µM (inactive) | GI50 (SNB-78): 42.6 µM (inactive)

Cc1cn(Cc2cnnn2CC2OC(n3cc(C)c(=O)[nH]c3=O)CC2O)c(=O)[nH]c1=O (stereo not drawn)
GI50 (DU-145): > 100 µM (inactive) | GI50 (MDA-MB-231): > 100 µM (inactive) | GI50 (Hs-578T): > 100 µM (inactive)

COc1ccccc1NC(=O)/C(=C/c1ccccc1)C(C)=O
GI50 (XF498): 19.4 µM (inactive) | GI50 (DMS-114): 40.3 µM (inactive) | GI50 (LXFL 529): 43.9 µM (inactive) | GI50 (SNB-78): 10.8 µM (inactive)

OCC1OC(n2ccc3cnccc32)CC1O (stereo not drawn)
GI50 (DMS-114): > 100 µM (inactive) | GI50 (LXFL 529): > 100 µM (inactive) | GI50 (DMS-273): > 100 µM (inactive) | GI50 (SNB-78): > 100 µM (inactive)

O=C(NC(COC(=O)C(Cc1ccccc1)NC(=O)c1ccccc1)Cc1ccccc1)c1ccccc1 (stereo not drawn)
GI50 (Hs-578T): > 50 µM (inactive)

N#Cc1c(-c2ccccc2)cn(C(=O)c2ccccc2)c1N
GI50 (DU-145): > 100 µM (inactive) | GI50 (MDA-MB-231): > 100 µM (inactive) | GI50 (Hs-578T): > 100 µM (inactive)

COc1ccc(C2COc3cc(O)c(O)cc3C2)cc1 (stereo not drawn)
GI50 (XF498): 7.28 µM (inactive) | GI50 (DMS-273): 33.3 µM (inactive) | GI50 (SNB-78): 38.3 µM (inactive)

CC1(C)CCc2c(ccc(C(=O)/C=C/c3ccc(O)cc3)c2O)O1 [DORSMANNIN A]
GI50 (DU-145): 9.25 µM (inactive) | GI50 (MDA-MB-231): 9.25 µM (inactive) | GI50 (Hs-578T): 14.1 µM (inactive)

FC(F)(F)C(C1=NC(C(F)(F)F)(C(F)(F)F)N=C(N2CCOCC2)O1)C(F)(F)F
GI50 (DU-145): 35.5 µM (inactive) | GI50 (MDA-MB-231): 14.4 µM (inactive) | GI50 (Hs-578T): 32.4 µM (inactive)

COc1cc(C(=O)C/C(CCC(=O)Nc2ccc(Cl)cc2Cl)=N/NC(=O)C(=O)NN)ccc1O
GI50 (XF498): > 100 µM (inactive) | GI50 (DMS-114): > 100 µM (inactive) | GI50 (LXFL 529): > 100 µM (inactive) | GI50 (RXF 631): > 100 µM (inactive)

CC1(C)OP(=O)(O)CC1=O
GI50 (DU-145): > 100 µM (inactive) | GI50 (Hs-578T): > 100 µM (inactive)

O=c1c(-c2ccccc2)c(SCCCN2CCCCC2)n(-c2ccccc2)c(=S)n1-c1ccccc1
GI50 (DU-145): 17.7 µM (inactive) | GI50 (MDA-MB-231): 14.5 µM (inactive) | GI50 (Hs-578T): 34.2 µM (inactive)

COC1/C=C/C(C)C(C(C)C(OC)C(C)CCC(=O)C(C)C(C/C=C/N(C)C=O)OC)OC(=O)/C=C/C=C(\C)CC(OC)CC2=CC(=O)O[C@H](C2)C(C)C(OC)CC(OC)/C=C/C(C)C(OC)C1 (stereo partly drawn)
GI50 (DU-145): 0.191 µM (active) | GI50 (Hs-578T): 0.0158 µM (active)

CN1C(=O)CN=C(c2ccccc2F)c2cc(N=C=S)ccc21
GI50 (DU-145): 86.3 µM (inactive) | GI50 (MDA-MB-231): 45.8 µM (inactive) | GI50 (Hs-578T): 61.7 µM (inactive)

CN(C)c1ccc(C2SCC(=O)N2NS(=O)(=O)c2cccc(C(=O)O)c2)cc1 (stereo not drawn)
GI50 (DU-145): > 100 µM (inactive) | GI50 (MDA-MB-231): > 100 µM (inactive) | GI50 (Hs-578T): > 100 µM (inactive)

N#CC1(C#N)C2C=CC(C3CCC=C32)C1(C#N)C#N (stereo not drawn)
GI50 (DU-145): > 10 µM (inactive) | GI50 (MDA-MB-231): > 10 µM (inactive) | GI50 (Hs-578T): > 10 µM (inactive)

CCOC(=O)COc1cccc2occc(=O)c12
GI50 (XF498): > 100 µM (inactive) | GI50 (DMS-114): > 100 µM (inactive) | GI50 (LXFL 529): > 100 µM (inactive) | GI50 (DMS-273): > 100 µM (inactive) | GI50 (SNB-78): > 100 µM (inactive)

NC1CCCCC1.O=P(O)(O)C(CSc1ccccc1)P(=O)(O)O
GI50 (XF498): > 100 µM (inactive) | GI50 (DMS-114): > 100 µM (inactive) | GI50 (DMS-273): > 100 µM (inactive) | GI50 (SNB-78): > 100 µM (inactive)
